Test results published in PubChem BioAssay AID330 (DTP/NCI, 2004).
Values joined by “and” are separate entries in the source; they are usually repeats but may differ in a detail not shown here. Equal values may be shown once. Inconclusive results and toxic doses are left out.

Tested on: P388 leukemia ip, CD2F1 mice, survival T/C
Assay: NCI In Vivo Anticancer Drug Screen. Data for tumor model P388 Leukemia (intraperitoneal) in CD2F1 (CDF1) mice
Settings: endpoint: median survival time, higher = longer survival
Procedure, shortened: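 Mice carrying the transplanted tumor received test compound or vehicle. Survival was recorded in each group, and the value is the treated-group measurement divided by that of the vehicle-treated control group.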

[1] = dose: 50.0 mg/kg/injection, schedule: Q01DX009 (ip), vehicle: Klucel (hydroxypropylcellulose) (HPC)
[2] = dose: 100.0 mg/kg/injection, schedule: Q01DX009 (ip), vehicle: Klucel (hydroxypropylcellulose) (HPC)
[3] = dose: 200.0 mg/kg/injection, schedule: Q01DX009 (ip), vehicle: Klucel (hydroxypropylcellulose) (HPC)
[4] = dose: 100.0 mg/kg/injection, schedule: Q01DX001 (ip), vehicle: Klucel (hydroxypropylcellulose) (HPC)
[5] = dose: 200.0 mg/kg/injection, schedule: Q01DX001 (ip), vehicle: Klucel (hydroxypropylcellulose) (HPC)
[6] = dose: 50.0 mg/kg/injection, schedule: Q01DX009 (ip), vehicle: distilled water + Tween-80
[7] = dose: 100.0 mg/kg/injection, schedule: Q01DX009 (ip), vehicle: distilled water + Tween-80
[8] = dose: 200.0 mg/kg/injection, schedule: Q01DX009 (ip), vehicle: distilled water + Tween-80
[9] = dose: 400.0 mg/kg/injection, schedule: Q01DX009 (ip), vehicle: distilled water + Tween-80
[10] = dose: 6.25 mg/kg/injection, schedule: Q01DX009 (ip), vehicle: saline
[11] = dose: 12.5 mg/kg/injection, schedule: Q01DX009 (ip), vehicle: Klucel (hydroxypropylcellulose) (HPC)
[12] = dose: 25.0 mg/kg/injection, schedule: Q01DX009 (ip), vehicle: Klucel (hydroxypropylcellulose) (HPC)

CCCCCCCCC(O)C#CC(N)=O (stereo not given)
T/C (dose: 100.0 mg/kg/injection, schedule: Q01DX001 (ip), vehicle: saline with Tween-80): 99 % of control
T/C (dose: 200.0 mg/kg/injection, schedule: Q01DX001 (ip), vehicle: saline with Tween-80): 90 % of control

CCOC(=O)CN1C(=S)CSC1=S
T/C [1]: 106 % of control
T/C [2]: 98 % of control
T/C [3]: 107 % of control and 109 % of control

Clc1cccc2nn3ccnc3n12
T/C (dose: 50.0 mg/kg/injection, schedule: Q01DX001 (ip), vehicle: Klucel (hydroxypropylcellulose) (HPC)): 105 % of control
T/C [4]: 99 % of control
T/C [5]: 102 % of control

CCCC[N+]1([O-])CCOCC1
T/C (dose: 50.0 mg/kg/injection, schedule: Q01DX009 (ip), vehicle: saline): 104 % of control
T/C (dose: 100.0 mg/kg/injection, schedule: Q01DX009 (ip), vehicle: saline): 100 % of control
T/C (dose: 200.0 mg/kg/injection, schedule: Q01DX009 (ip), vehicle: saline): 107 % of control

CC(C)NC(=O)c1ccc(C/[N+]([O-])=C/c2ccccc2)cc1
T/C [6]: 95 % of control
T/C (dose: 50.0 mg/kg/injection, schedule: Q01DX009 (ip), vehicle: other): 121 % of control
T/C [7]: 92 % of control and 95 % of control
T/C (dose: 100.0 mg/kg/injection, schedule: Q01DX009 (ip), vehicle: other): 103 % of control
T/C [8]: 89 % of control and 92 % of control
T/C (dose: 200.0 mg/kg/injection, schedule: Q01DX009 (ip), vehicle: other): 116 % of control
T/C [9]: 92 % of control
T/C (dose: 800.0 mg/kg/injection, schedule: Q01DX009 (ip), vehicle: other): 153 % of control

CCCCCCCCCC[CH2][Sn]([CH2]CCCCCCCCCC)([CH2]CCCCCCCCCC)[CH2]CCCCCCCCCC
T/C [10]: 99 % of control
T/C (dose: 12.5 mg/kg/injection, schedule: Q01DX009 (ip), vehicle: saline): 105 % of control
T/C (dose: 25.0 mg/kg/injection, schedule: Q01DX009 (ip), vehicle: saline): 99 % of control

CC(C)=CCc1c(OC(=O)c2c(C)cc(O)cc2O)cc(CO)c(CO)c1O
T/C (dose: 6.25 mg/kg/injection, schedule: Q01DX009 (ip), vehicle: Klucel (hydroxypropylcellulose) (HPC)): 101 % of control
T/C [11]: 100 % of control and 101 % of control
T/C [12]: 101 % of control and 96 % of control
T/C [1]: 101 % of control and 104 % of control
T/C [2]: 101 % of control and 102 % of control

N#CC(Cc1ccccc1Cl)C(=O)O (stereo not given)
T/C (dose: 12.5 mg/kg/injection, schedule: Q01DX009 (none), vehicle: saline): 99 % of control
T/C (dose: 25.0 mg/kg/injection, schedule: Q01DX009 (none), vehicle: saline): 92 % of control
T/C (dose: 50.0 mg/kg/injection, schedule: Q01DX009 (none), vehicle: saline): 90 % of control
T/C (dose: 100.0 mg/kg/injection, schedule: Q01DX009 (none), vehicle: saline): 90 % of control

COC(=O)Cc1[nH]ncc1C(=O)OC
T/C (dose: 60.0 mg/kg/injection, schedule: Q01DX005 (ip), vehicle: saline): 106 % of control
T/C (dose: 120.0 mg/kg/injection, schedule: Q01DX005 (ip), vehicle: saline): 103 % of control
T/C (dose: 240.0 mg/kg/injection, schedule: Q01DX005 (ip), vehicle: saline): 96 % of control

CN(S(=O)(=O)CC(F)(F)F)S(=O)(=O)C(F)(F)F
T/C (dose: 1.56 mg/kg/injection, schedule: Q01DX009 (ip), vehicle: saline): 120 % of control
T/C (dose: 2.05 mg/kg/injection, schedule: Q01DX009 (ip), vehicle: saline): 93 % of control and 97 % of control
T/C (dose: 3.12 mg/kg/injection, schedule: Q01DX009 (ip), vehicle: saline): 101 % of control and 102 % of control
T/C (dose: 4.68 mg/kg/injection, schedule: Q01DX009 (ip), vehicle: saline): 102 % of control and 111 % of control
T/C [10]: 100 % of control

CCn1c(=O)c2[nH]c(Cl)nc2n(CC(C)Cl)c1=O (stereo not given)
T/C [11]: 94 % of control
T/C [12]: 101 % of control
T/C [1]: 100 % of control and 103 % of control
T/C [2]: 104 % of control

CC(C)(C)c1cc(C(c2ccccc2)(c2ccccc2)c2ccccc2)cc2c1[O][Sb]([c]1ccccc1)([c]1ccccc1)([c]1ccccc1)[NH]2
T/C [1]: 102 % of control
T/C [2]: 103 % of control
T/C [3]: 116 % of control

CCOC(=O)C(C(=O)COC)C(=O)OCC
T/C (dose: 12.5 mg/kg/injection, schedule: Q01DX009 (ip), vehicle: water): 100 % of control
T/C (dose: 25.0 mg/kg/injection, schedule: Q01DX009 (ip), vehicle: water): 99 % of control
T/C (dose: 50.0 mg/kg/injection, schedule: Q01DX009 (ip), vehicle: water): 99 % of control
T/C (dose: 100.0 mg/kg/injection, schedule: Q01DX009 (ip), vehicle: water): 98 % of control
T/C (dose: 200.0 mg/kg/injection, schedule: Q01DX009 (ip), vehicle: water): 97 % of control

O=C(CC(c1ccccc1)C(Sc1ccccc1)(Sc1ccccc1)Sc1ccccc1)c1ccccc1 (stereo not given)
T/C [12]: 100 % of control
T/C [1]: 100 % of control
T/C [2]: 100 % of control and 105 % of control

CC1OC(Oc2c(-c3ccc(O)c(O)c3O)oc3cc(O)ccc3c2=O)C(O)C(O)C1O (stereo not given)
T/C (dose: 60.0 mg/kg/injection, schedule: Q01DX005 (ip), vehicle: saline with Tween-80): 102 % of control
T/C (dose: 120.0 mg/kg/injection, schedule: Q01DX005 (ip), vehicle: saline with Tween-80): 98 % of control
T/C (dose: 240.0 mg/kg/injection, schedule: Q01DX005 (ip), vehicle: saline with Tween-80): 99 % of control

CC(C)=CCC(OC1OC(CO)C(O)C(O)C1N)C1=CC(=O)c2c(O)ccc(O)c2C1=O (stereo not given)
T/C (dose: 2.5 mg/kg/injection, schedule: Q04DX002 (ip), vehicle: saline): 103 % of control
T/C (dose: 5.0 mg/kg/injection, schedule: Q04DX002 (ip), vehicle: saline): 111 % of control
T/C (dose: 10.0 mg/kg/injection, schedule: Q04DX002 (ip), vehicle: saline): 114 % of control
T/C (dose: 20.0 mg/kg/injection, schedule: Q04DX002 (ip), vehicle: saline): 113 % of control
T/C (dose: 40.0 mg/kg/injection, schedule: Q04DX002 (ip), vehicle: saline): 111 % of control

OCC(O)C1OC(c2ccccc2)OC(CO)C1O (stereo not given)
T/C (dose: 50.0 mg/kg/injection, schedule: Q01DX005 (ip), vehicle: saline with Tween-80): 100 % of control
T/C (dose: 100.0 mg/kg/injection, schedule: Q01DX005 (ip), vehicle: saline with Tween-80): 109 % of control
T/C (dose: 200.0 mg/kg/injection, schedule: Q01DX005 (ip), vehicle: saline with Tween-80): 102 % of control

CC1(C)CC2(CC(C)(C)NC(=O)N2)NC(=O)N1
T/C (dose: 50.0 mg/kg/injection, schedule: Q01DX005 (ip), vehicle: Klucel (hydroxypropylcellulose) (HPC)): 105 % of control
T/C (dose: 100.0 mg/kg/injection, schedule: Q01DX005 (ip), vehicle: Klucel (hydroxypropylcellulose) (HPC)): 92 % of control
T/C (dose: 200.0 mg/kg/injection, schedule: Q01DX005 (ip), vehicle: Klucel (hydroxypropylcellulose) (HPC)): 100 % of control

CC(=O)OC1(c2ccccc2)CCN(C)CC1C(=O)c1ccccc1 (stereo not given)
T/C (dose: 50.0 mg/kg/injection, schedule: Q01DX005 (ip), vehicle: saline): 109 % of control
T/C (dose: 100.0 mg/kg/injection, schedule: Q01DX005 (ip), vehicle: saline): 116 % of control

Cc1ccc2c(c1)[C@]1(C)O[C@@H](C=C[C@@H]1O)O2
T/C [4]: 104 % of control
T/C [5]: 102 % of control

CC1(C)CCCc2conc21
T/C (dose: 50.0 mg/kg/injection, schedule: Q01DX009 (ip), vehicle: saline with Tween-80): 96 % of control
T/C (dose: 100.0 mg/kg/injection, schedule: Q01DX009 (ip), vehicle: saline with Tween-80): 101 % of control
T/C (dose: 200.0 mg/kg/injection, schedule: Q01DX009 (ip), vehicle: saline with Tween-80): 96 % of control

N#Cc1ccccc1NCc1ccccc1
T/C (dose: 12.5 mg/kg/injection, schedule: Q01DX009 (ip), vehicle: distilled water + Tween-80): 103 % of control
T/C (dose: 25.0 mg/kg/injection, schedule: Q01DX009 (ip), vehicle: distilled water + Tween-80): 102 % of control
T/C [6]: 100 % of control and 97 % of control
T/C [7]: 100 % of control and 103 % of control and 92 % of control
T/C [8]: 94 % of control and 95 % of control (2×)
T/C [9]: 99 % of control and 93 % of control
T/C (dose: 600.0 mg/kg/injection, schedule: Q01DX009 (ip), vehicle: distilled water + Tween-80): 99 % of control

CCCC(=O)Nc1cc([N+](=O)[O-])c([N+](=O)[O-])cc1OC
T/C (dose: 60.0 mg/kg/injection, schedule: Q01DX005 (ip), vehicle: Klucel (hydroxypropylcellulose) (HPC)): 94 % of control
T/C (dose: 120.0 mg/kg/injection, schedule: Q01DX005 (ip), vehicle: Klucel (hydroxypropylcellulose) (HPC)): 91 % of control
T/C (dose: 240.0 mg/kg/injection, schedule: Q01DX005 (ip), vehicle: Klucel (hydroxypropylcellulose) (HPC)): 94 % of control
